Read-outs that look alike come from different tables or passages of the source.
Columns and labels:
[1] = target: T1, JAK3 (Homo sapiens, UniProt P52333); assay: JAK3 inhibition assay (radiometric 33P filter assay); type: biochemical
T1 sequence (P52333 1-1124): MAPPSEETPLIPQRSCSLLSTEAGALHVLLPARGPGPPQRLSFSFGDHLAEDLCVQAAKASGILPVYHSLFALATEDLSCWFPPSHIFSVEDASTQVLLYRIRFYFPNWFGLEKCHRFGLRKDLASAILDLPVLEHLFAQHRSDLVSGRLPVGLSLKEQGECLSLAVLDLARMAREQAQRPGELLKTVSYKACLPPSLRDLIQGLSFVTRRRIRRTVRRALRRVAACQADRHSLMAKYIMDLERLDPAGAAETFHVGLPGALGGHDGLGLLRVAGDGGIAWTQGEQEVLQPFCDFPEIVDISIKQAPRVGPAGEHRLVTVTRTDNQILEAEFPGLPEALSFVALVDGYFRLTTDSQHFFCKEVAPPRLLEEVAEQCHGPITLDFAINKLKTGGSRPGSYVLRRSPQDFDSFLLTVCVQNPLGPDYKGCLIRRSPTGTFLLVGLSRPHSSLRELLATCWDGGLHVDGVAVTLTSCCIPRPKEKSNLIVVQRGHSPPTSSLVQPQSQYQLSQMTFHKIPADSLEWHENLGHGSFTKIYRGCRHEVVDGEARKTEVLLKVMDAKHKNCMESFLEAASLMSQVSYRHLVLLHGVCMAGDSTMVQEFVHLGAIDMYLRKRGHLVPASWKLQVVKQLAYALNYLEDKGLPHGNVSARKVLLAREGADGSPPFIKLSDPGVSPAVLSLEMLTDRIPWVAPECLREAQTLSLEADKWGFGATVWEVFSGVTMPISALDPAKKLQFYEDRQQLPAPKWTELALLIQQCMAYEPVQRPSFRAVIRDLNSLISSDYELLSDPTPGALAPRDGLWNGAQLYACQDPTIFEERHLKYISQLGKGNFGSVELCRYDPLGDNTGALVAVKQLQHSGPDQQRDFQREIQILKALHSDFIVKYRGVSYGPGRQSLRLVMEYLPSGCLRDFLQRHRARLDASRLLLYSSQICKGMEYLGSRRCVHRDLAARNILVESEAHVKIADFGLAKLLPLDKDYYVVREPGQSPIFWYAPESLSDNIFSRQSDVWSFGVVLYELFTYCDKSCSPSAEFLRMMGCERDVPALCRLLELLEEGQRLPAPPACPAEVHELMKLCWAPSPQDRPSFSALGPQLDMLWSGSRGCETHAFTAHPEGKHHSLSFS
Procedure: (§1) Compounds were screened for their ability to inhibit JAK using the assay shown below. Reactions were carried out in a kinase buffer containing 100 mM HEPES (pH 7.4), 1 mM DTT, 10 mM MgCl2, 25 mM NaCl, and 0.01% BSA.
(§2) Substrate concentrations in the assay were 5 μM ATP (200 uCi/μmole ATP) and 1 μM poly(Glu)4Tyr. Reactions were carried out at 25° C. and 1 nM JAK3.
(§3) To each well of a 96 well polycarbonate plate was added 1.5 μl of a candidate JAK3 inhibitor along with 50 μl of kinase buffer containing 2 μM poly(Glu)4Tyr and 10 μM ATP. This was then mixed and 50 μl of kinase buffer containing 2 nM JAK3 enzyme was added to start the reaction. After 20 minutes at room temperature (25° C.), the reaction was stopped with 50 μl of 20% trichloroacetic acid (TCA) that also contained 0.4 mM ATP. The entire contents of each well were then transferred to a 96 well glass fiber filter plate using a TomTek Cell Harvester. After washing, 60 μl of scintillation fluid was added and ^33P incorporation detected on a Perkin Elmer TopCount.

[2] = target: JAK-2 enzyme (Homo sapiens, UniProt O60674); assay: JAK2 inhibition assay (radiometric 33P filter assay); type: biochemical
JAK-2 enzyme, sequence (O60674 whole entry, species assumed): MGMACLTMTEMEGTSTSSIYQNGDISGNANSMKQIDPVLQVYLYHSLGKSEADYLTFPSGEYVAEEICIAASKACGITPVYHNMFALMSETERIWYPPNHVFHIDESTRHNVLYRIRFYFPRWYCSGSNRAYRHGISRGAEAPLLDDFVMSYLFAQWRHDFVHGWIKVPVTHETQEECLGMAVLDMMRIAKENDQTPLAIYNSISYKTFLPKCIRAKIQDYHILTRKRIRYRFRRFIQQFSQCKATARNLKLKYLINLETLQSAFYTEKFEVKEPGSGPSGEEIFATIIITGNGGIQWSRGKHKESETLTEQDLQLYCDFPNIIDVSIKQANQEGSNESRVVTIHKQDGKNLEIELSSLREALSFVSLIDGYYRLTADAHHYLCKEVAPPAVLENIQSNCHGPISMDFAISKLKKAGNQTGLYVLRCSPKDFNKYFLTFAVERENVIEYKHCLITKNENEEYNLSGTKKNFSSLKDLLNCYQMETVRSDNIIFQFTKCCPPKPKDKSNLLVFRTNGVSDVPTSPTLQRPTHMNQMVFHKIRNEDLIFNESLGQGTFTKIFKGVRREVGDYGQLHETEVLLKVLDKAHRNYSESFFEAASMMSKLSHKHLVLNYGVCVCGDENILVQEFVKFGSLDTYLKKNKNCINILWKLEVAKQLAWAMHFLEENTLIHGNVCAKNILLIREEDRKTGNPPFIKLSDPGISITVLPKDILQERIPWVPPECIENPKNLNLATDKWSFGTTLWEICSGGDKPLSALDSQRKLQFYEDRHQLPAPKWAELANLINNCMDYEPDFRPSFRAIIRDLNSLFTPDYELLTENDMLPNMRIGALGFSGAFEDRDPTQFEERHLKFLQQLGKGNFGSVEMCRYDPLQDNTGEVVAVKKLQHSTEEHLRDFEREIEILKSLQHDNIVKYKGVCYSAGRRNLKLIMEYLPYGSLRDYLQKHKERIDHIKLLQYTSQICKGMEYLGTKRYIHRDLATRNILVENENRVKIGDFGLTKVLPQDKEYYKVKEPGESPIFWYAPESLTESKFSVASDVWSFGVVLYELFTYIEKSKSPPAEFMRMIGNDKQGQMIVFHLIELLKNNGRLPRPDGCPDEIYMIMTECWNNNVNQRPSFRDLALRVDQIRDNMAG
Procedure: as §1, §2, §3
The assays were as described above in Example 25 except that JAK-2 enzyme was used, the final poly(Glu)4Tyr concentration was 15 μM, and final ATP concentration was 12 μM.

[3] = 1 μM poly(Glu)4Tyr, 5 μM ATP, 1 nM JAK3, 25° C., read-out: JAK3 inhibition data (Ki)
[4] = 15 μM poly(Glu)4Tyr, 12 μM ATP, read-out: JAK2 inhibition data (Ki)

Row | Structure (SMILES) | Ki [1, 3] [nM] | Ki [2, 4] [nM] | Ki [1] [nM] | Ki [2] [nM]
1 | CCOC(=O)N1CCN(c2ccc(Nc3nc(N)n(-c4cc(N5CCCN(C(=O)CC#N)CC5)ncn4)n3)cc2)CC1 [Compound 124] | < 50 | < 50 | – | –
2 | CCS(=O)(=O)N1CCN(c2ccc(Nc3nc(N)n(-c4ccnc(N5CCCN(C(=O)OC)CC5)c4)n3)cc2)CC1 [Compound 152] | 50 to 500 | 50 to 500 | – | –
3 | CS(=O)(=O)N1CCCN(c2cc(-n3nc(Nc4ccc(N5CCOCC5)cc4)nc3N)ncn2)CC1 [Compound 7] | < 50 | < 50 | – | –
4 | COC(=O)Nc1ccc(Nc2nc(N)n(-c3cc(N4CCCN(C(C)=O)CC4)ncn3)n2)cc1 [Compound 90] | < 50 | < 50 | – | –
5 | COC(=O)N1CCCN(c2cc(-n3nc(Nc4ccc(N5CCOCC5)cc4)nc3N)ncn2)CC1 [Compound 8] | < 50 | < 50 | – | –
6 | CCOC(=O)N1CCN(c2ccc(Nc3nc(N)n(-c4ccnc(N5CCCN(C(=O)OC)CC5)c4)n3)cc2)CC1 [Compound 148] | 50 to 500 | 50 to 500 | – | –
7 | CCCOC(=O)Nc1ccc(Nc2nc(N)n(-c3ccnc(N4C[C@@H](C)N(C(C)=O)[C@@H](C)C4)c3)n2)cc1 [Compound 102] | < 50 | < 50 | – | –
8 | CCCOC(=O)N1CCN(c2ccc(Nc3nc(N)n(-c4ccnc(N5C[C@@H](C)N(C(C)=O)[C@@H](C)C5)c4)n3)cc2)CC1 [Compound 139] | < 50 | < 50 | – | –
9 | Nc1nc(Nc2ccc(N3CCOCC3)cc2)nn1-c1ccnc(N2CCCOCC2)c1 [Compound 14] | 50 to 500 | 50 to 500 | – | –
10 | CC(=O)N1[C@H](C)CN(c2cc(-n3nc(Nc4ccc(N(C)C(=O)Oc5ccc(C)cc5)cc4)nc3N)ncn2)C[C@@H]1C [Compound 121] | – | – | < 50 | < 50
11 | CC(=O)N1CCCN(c2cc(-n3nc(Nc4ccc(NC(=O)Oc5ccc(C)cc5)cc4)nc3N)ncn2)CC1 [Compound 96] | < 50 | < 50 | – | –
12 | CC(=O)N1CCCN(c2cc(-n3nc(Nc4ccc(N5CCN(C(=O)C(C)(C)C)CC5)cc4)nc3N)ncn2)CC1 [Compound 36] | < 50 | < 50 | – | –
13 | CCOC(=O)N1CCN(c2ccc(Nc3nc(N)n(-c4cc(N5C[C@@H](C)N(C(C)=O)[C@@H](C)C5)ncn4)n3)cc2)CC1 [Compound 54] | < 50 | < 50 | – | –
14 | COC(=O)Nc1ccc(Nc2nc(N)n(-c3cc(N4C[C@@H](C)N(C(C)=O)[C@@H](C)C4)ncn3)n2)cc1 [Compound 75] | < 50 | < 50 | – | –
15 | CC(=O)N1CCCN(c2cc(-n3nc(Nc4ccc(N5C[C@@H](C)O[C@@H](C)C5)cc4)nc3N)ncn2)CC1 [Compound 33] | < 50 | < 50 | – | –
16 | CC(=O)N1CCCN(c2cc(-n3nc(Nc4ccc(NC(=O)c5ccco5)cc4)nc3N)ncn2)CC1 [Compound 30] | < 50 | < 50 | – | –
17 | Nc1nc(Nc2ccc(N3CCOCC3)cc2)nn1-c1ccnc(N2CC3CCC(CC3)C2)c1 [Compound 18] | < 50 | < 50 | – | –
18 | CC(=O)N1CCCN(c2cc(-n3nc(Nc4ccc(N5CCN(C(=O)C6CC6)CC5)cc4)nc3N)ncn2)CC1 [Compound 39] | < 50 | < 50 | – | –
19 | CC(=O)N1[C@H](C)CN(c2cc(-n3nc(Nc4ccc(N5CCN(C(=O)OC(C)(C)C)CC5)cc4)nc3N)ncn2)C[C@@H]1C [Compound 52] | < 50 | < 50 | – | –
20 | CC(=O)N1[C@H](C)CN(c2cc(-n3nc(Nc4ccc(NC(=O)OC(C)(C)C)cc4)nc3N)ccn2)C[C@@H]1C [Compound 109] | < 50 | < 50 | – | –
21 | CC(=O)N1[C@H](C)CN(c2cc(-n3nc(Nc4ccc(N5CCN(C(=O)Nc6c(F)cccc6F)CC5)cc4)nc3N)ncn2)C[C@@H]1C [Compound 66] | < 50 | < 50 | – | –

Row | Structure (SMILES) | Ki [1, 3] [nM] | Ki [2, 4] [nM] | Ki [1] [nM] | Ki [2] [nM]
22 | CC(=O)N1CCCN(c2cc(-n3nc(Nc4ccc(N5CCN(C(=O)OC(C)(C)C)CC5)cc4)nc3N)ncn2)CC1 [Compound 34] | < 50 | < 50 | – | –
23 | CC(=O)N1[C@H](C)CN(c2cc(-n3nc(Nc4ccc(NC(=O)OCC(C)(C)C)cc4)nc3N)ccn2)C[C@@H]1C [Compound 104] | < 50 | < 50 | – | –
24 | CCOC(=O)N1CCN(c2ccc(Nc3nc(N)n(-c4cc(N5CCC6CCC(C5)N6C)ncn4)n3)cc2)CC1 (stereo not drawn) [Compound 166] | < 50 | < 50 | – | –
25 | CC(=O)N1[C@H](C)CN(c2cc(-n3nc(Nc4ccc(N5CCOCC5)cc4)nc3N)ncn2)C[C@@H]1C [Compound 16] | < 50 | < 50 | – | –
26 | CCCNC(=O)N1CCN(c2ccc(Nc3nc(N)n(-c4cc(N5C[C@@H](C)N(C(C)=O)[C@@H](C)C5)ncn4)n3)cc2)CC1 [Compound 61] | < 50 | < 50 | – | –
27 | CC(=O)N1CCCN(c2cc(-n3nc(Nc4ccc(N5CCN(C(=O)Oc6ccc(C)cc6)CC5)cc4)nc3N)ncn2)CC1 [Compound 51] | < 50 | < 50 | – | –
28 | CCNC(=O)N1CCN(c2ccc(Nc3nc(N)n(-c4cc(N5C[C@@H](C)N(C(C)=O)[C@@H](C)C5)ncn4)n3)cc2)CC1 [Compound 60] | < 50 | < 50 | – | –
29 | CC(=O)N1CCCN(c2cc(-n3nc(Nc4ccc(N(C)C(=O)OC(C)(C)C)cc4)nc3N)ncn2)CC1 [Compound 115] | < 50 | < 50 | – | –
30 | CC(=O)N1CCCN(c2cc(-n3nc(Nc4ccc(NC(=O)c5cccnc5)cc4)nc3N)ncn2)CC1 [Compound 27] | < 50 | < 50 | – | –
31 | CC(=O)N1[C@H](C)CN(c2cc(-n3nc(Nc4ccc(N5CCN(C(=O)OCC(C)C)CC5)cc4)nc3N)ccn2)C[C@@H]1C [Compound 128] | < 50 | < 50 | – | –
32 | CCOC(=O)N1CCN(c2ccc(Nc3nc(N)n(-c4cc(N5CCCN(C(C)=O)CC5)ncn4)n3)cc2)CC1 [Compound 46] | < 50 | < 50 | – | –
33 | CCCOC(=O)N1CCN(c2ccc(Nc3nc(N)n(-c4ccnc(N5CCCN(C(=O)OCC)CC5)c4)n3)cc2)CC1 [Compound 159] | 50 to 500 | 50 to 500 | – | –
34 | CC(=O)N1CCCN(c2cc(-n3nc(Nc4ccc(NC(=O)C5CCC(C)CC5)cc4)nc3N)ncn2)CC1 (stereo not drawn) [Compound 24] | < 50 | < 50 | – | –
35 | CCS(=O)(=O)N1CCCN(c2cc(-n3nc(Nc4ccc(N5CCN(C(=O)OC(C)C)CC5)cc4)nc3N)ccn2)CC1 [Compound 169] | 50 to 500 | 50 to 500 | – | –
36 | CC(=O)N1[C@H](C)CN(c2cc(-n3nc(Nc4ccc(NC(=O)OCC(C)C)cc4)nc3N)ncn2)C[C@@H]1C [Compound 79] | < 50 | < 50 | – | –
37 | CCCOC(=O)N1CCN(c2ccc(Nc3nc(N)n(-c4cc(N5CCCN(C(=O)CC#N)CC5)ncn4)n3)cc2)CC1 [Compound 125] | < 50 | < 50 | – | –
38 | CCOC(=O)Nc1ccc(Nc2nc(N)n(-c3cc(N4CCCN(C(=O)CC#N)CC4)ncn3)n2)cc1 [Compound 137] | < 50 | < 50 | – | –
39 | CC(=O)N1CCCN(c2cc(-n3nc(Nc4ccc(N5CCCCC5)cc4)nc3N)ncn2)CC1 [Compound 13] | < 50 | < 50 | – | –
40 | Nc1nc(Nc2ccc(N3CCOCC3)cc2)nn1-c1cc(N2CCNC(=O)CC2)ncn1 [Compound 3] | < 50 | < 50 | – | –
41 | CCOC(=O)N1CCN(c2ccc(Nc3nc(N)n(-c4ccnc(N5C[C@@H](C)N(C(C)=O)[C@@H](C)C5)c4)n3)cc2)CC1 [Compound 113] | < 50 | < 50 | – | –
42 | CC(=O)N1[C@H](C)CN(c2cc(-n3nc(Nc4ccc(N5CCN(C(=O)OC(C)C)CC5)cc4)nc3N)ncn2)C[C@@H]1C [Compound 56] | < 50 | < 50 | – | –

— patent US7329652B2, “Diaminotriazole compounds useful as protein kinase inhibitors” (Vertex Pharamaceuticals Incorporated, priority 2004, dated 2008)
